Patent US20130190370A1, “Novel Tetrahydronaphalene Antagonists to the Thromboxane A2 (TP) Receptor” (The Trustees of the University of Pennsylvania, priority 2010, published 2013)
pKd: −log10 of the molar value. Read-outs that look alike come from different tables or passages of the source.

Legend:
[1] = Unbound fractions in plasma and brain homogenates by equilibrium dialysis; format: in vitro ADME; settings: for fraction unbound: equilibrium dialysis
Text: Without wishing to be bound by any particular theory, it is believed that it is possible (although uncommon) for a BBB-permeable compound to have a very low B/P ratio if the fraction of free, unbound drug is much greater in the […]. More specifically, a drug that is freely diffusible across the BBB will at equilibrium have a free drug B/P ratio (B/Pfree)=1, where B/Pfree=B/P×fu(brain))/fu(plasma) (Maurer, et al., 2005, Drug Metab Dispos. 33:175-181; Kalvasset al., 2007, Drug Metab Dispos. 35:660-666) and fti represents unbound drug fractions. […] To ensure that the low B/P ratios obtained with the TP antagonists of Table 1 were truly reflective of poor BBB permeability, the unbound fractions in plasma and brain homogenates were measured using established equilibrium dialysis methods (Maurer, et al., 2005, Drug Metab Dispos. 33:175-181; Kalvasset al., 2007, Drug Metab Dispos. 35:660-666; Friden, et al., 2007, Drug Metab Dispos. 35:1711-1719). […] This is further illustrated by comparing the calculated B/Pfree ratios (Table 1), which are <<1. Because the existing repertoire of TP receptor antagonists share common structural features, including free carboxylate moieties, it is highly unlikely that any of these existing compounds would be sufficiently brain-penetrant to be potential AD therapeutics.

[2] = S18886 brain and plasma levels after administration to mice in drinking water; format: in vivo
Procedure: Brain and plasma drug levels of S18886 were measured after administration to mice in drinking water, as previously described (Shineman, et al., 2008, J. Neurosci 28:4785-4794). Mice have 20-30 separate drinking bouts over the course of the day (Gannon, et al., 1992, Physiol Behav. 51:515-521), albeit with much greater water consumption during the night. […] In fact, extended exposure to excessively high blood levels of a TP receptor antagonist could increase the risk of bleeding complications due to compromise of platelet function, as it is known that TP receptor knockout mice and TxA2 synthase-deficient mice have prolonged clotting times (Thomas, et al., 1998, J Clin Invest 102:1994-2001; Yu, et al., 2004, Blood 104:135-142). Furthermore, inactivating mutations in the TP receptor have been linked to a dominantly inherited bleeding disorder in humans (Hirata, et al., 1994, J Clin Invest 94:1662-1667).

mouse TP receptor = molecular target: T1, mouse TP receptor (Mus musculus, UniProt P30987); assay: Radioligand binding assay (3H-SQ29,548), mouse TP receptor; settings: read-out: Kd / affinity at the mouse TP receptor
T1 construct: expressed in transfected cells
T1 sequence (P30987 1-341): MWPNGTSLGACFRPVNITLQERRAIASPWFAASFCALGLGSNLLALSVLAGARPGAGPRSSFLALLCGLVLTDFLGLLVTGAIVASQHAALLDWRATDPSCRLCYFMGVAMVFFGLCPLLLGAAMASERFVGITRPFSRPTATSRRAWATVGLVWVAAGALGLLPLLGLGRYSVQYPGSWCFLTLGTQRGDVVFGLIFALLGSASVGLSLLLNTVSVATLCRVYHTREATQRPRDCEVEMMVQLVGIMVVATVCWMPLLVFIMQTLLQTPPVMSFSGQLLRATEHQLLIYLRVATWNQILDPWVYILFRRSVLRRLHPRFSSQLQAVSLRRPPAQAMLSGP
Procedure: QBI-HEK 293A cells expressing human or mouse TxA2 (TP) receptor were grown as described previously and harvested in phosphate-buffered saline with 1 mM EDTA. The cell pellet was homogenized in a glass homogenizer in 20 mM Hepes, 1 mM EGTA, 0.5 mM DTT with protease inhibitor cocktail. The homogenate was initially centrifuged at 1000×g for 10 minutes at 8° C. to remove cell debris. The homogenate was then centrifuged in a Beckman L8-70M ultracentrifuge (Beckman-Coulter, Brea, Calif., USA) at 21,000 rpm for 30 minutes at 4° C., and the pellet was resuspended in 20 mM Hepes, 1 mM EGTA, 100 mM NaCl. Membrane preparations were normalized to protein level as determined with a BCA assay (ThermoFisher, Rockland, Ill.) and stored at −80° C.
Test antagonists were incubated at 10 different concentrations with 25 μg membrane and 25 nM ^3H-SQ29,548 (PerkinElmer, Waltham, Mass., USA) in 50 mM Tris, 4 mM CaCl2, 0.1% ascorbic acid pH 7.5 for 2 hours at 25° C. in 96-well polystyrene plates. Separation of bound from free radioligand was accomplished by rapid vacuum filtration onto 96-well GF/B filter plates (PerkinElmer, Waltham, Mass., USA). Filters were washed 8 times in 50 mM Tris, pH 6.9 and allowed to dry for 16 hours, Plates were sealed and filters dissolved in 50 μL Betaplate Scintillation fluid (PerkinElmer, Waltham, Mass., USA) and read on a scintillation counter. Data are presented as percent total binding as calculated by a minimum of 3 wells containing membrane and ^3H-SQ29,548 without antagonist.
Equilibrium dissociation constants (Kd), IC50, and Schild regression analyses was performed with GraphPad Prism software (GraphPad Software Inc., La Jolla, Calif., USA).
To facilitate the characterization of the new compounds, cell-based TP receptor functional assays were optimized. HEK293 clones have been produced that stably express the human (hTP) or mouse (mTP) TP receptor (a isoform), and treatment of these clones with I-BOP ([1S-[1α,2α(Z),3β(1E,3S*),4α]]-7-[3-[3-hydroxy-4-(4-iodophenoxy)-1-butenyl]-7-oxabicyclo[2.2.1]hept-2-yl]-5-heptenoic acid) results in increased production of inositol triphosphate (IP3) (Knezevic, et al., 1993, Blood 82:A156; Shenker, et al., 1991, J Biol Chem 266:9309-9313; Huang, et al., 2004, Cell Signal 16:521-533) which can be quantified by measuring the breakdown product, inositol monophosphates (IP1), using a commercial time-resolved fluorescence assay. […] A radioligand binding assay was also developed to allow for the determination of binding affinities of compounds at the hTP and mTP receptors.

Tg2576 mice = settings: cited from earlier work

`Cc1ccc2c(c1CCC(=O)O)CC[C@@H](NS(=O)(=O)c1ccc(Cl)cc1)C2` [Compound S18886] showed a fraction unbound ([1]; brain homogenate, read-out: fu(brain) (fraction unbound)) of 0.044, a plasma/brain unbound fraction ratio ([1]; plasma and brain homogenate, ratio of unbound fractions plasma/brain, read-out: fu(pl)/fu(br)) of 0.59 and a fraction unbound ([1]; plasma, read-out: fu(plasma) (fraction unbound)) of 0.026. For the same compound, the “free drug in plasma relative to brain” value ([2]; drinking water dosing) was greater than 10 ×, the “calculated free drug concentration in brain as % of Kd at mouse TP receptor” value ([2]; drinking water dosing, daylight phase) was roughly 30% and the concentration at 1 day ([2]; mouse, brain, oral, dosing by drinking water, day 1, daylight phase, read-out: Free S18886 brain level) was 0.093 nM. The concentration at 2 day ([2]; mouse, brain, oral, dosing by drinking water, day 2, daylight phase, read-out: Free S18886 brain level) was 0.117 nM, the pKd (mouse TP receptor) was 9.44 and the Aβ levels (Tg2576 mice; Tg2576 mice, drinking water) was “reduced Aβ levels”. The plaque load (Tg2576 mice; long-term treatment, relative to untreated mice) was “significant diminution of plaque load”.
